Experiments:
[1] = room temperature, various compositions; cited from earlier work
[2] = Water solubility of cyclodextrin complexes with or without polysorbate 80 / polypowder; type: physicochemical; conditions: aqueous with cosolvent or surfactant or cyclodextrin, complexed with hpbcd, read-out: solubility when complexed with hpbcd

Row | SMILES | degradation by water [1] [h] | solubility [2] [µg/mL]
1 | Cc1cc(C2=NOC(c3cc(Cl)cc(Cl)c3)(C(F)(F)F)C2)ccc1C(=O)NCC(=O)NCC(F)(F)F (centres unmarked) [Fluralaner, 4-[5-(3,5-dichlorophenyl)-5-trifluoromethyl-4,5-dihydroisoxazol-3-yl]-2-methyl-N-[(2,2,2-trifluoro-ethylcarbamoyl)-methyl]-benzamide] | ≤ 48 | –
2 | O=C(NN1C(=O)[C@@H]2[C@@H]3C=C[C@@H]([C@H]4C[C@@H]34)[C@@H]2C1=O)c1ccc(C(F)(F)F)cc1 [tecovirimat] | – | > 10000

Reference: US11903962B1, “Isoxazoline complexes and compositions thereof” (priority 2023, dated 2024)
